Entries after “also recorded” stand apart in the source; their conditions may differ. Read-outs that look alike come from different tables or passages of the source.
Columns and labels:
[1] = test system: CB1−/− receptor knockout mice; assay: Central effects in CB1−/− receptor knockout mice; assay type: in vivo; settings: not shown
Procedure: (§1) Female Sabra mice (2-3 months of age) were purchased from Harlan, Israel. Breeding pairs of CB1−/− receptor knockout mice were provided by Prof. A. Zimmer, University Clinic Bonn, Germany.
(§2) Mice were injected with antagonist 90 minutes before testing and/or with agonist 60 minutes before testing in a series of four assays which reflect central cannabinoid activity [Martin (1991) id. ibid.; modified by Fride, E. and R. Mechoulam (1993) id. ibid.]. This “tetrad” consists of, consecutively, ambulation and rearing in an open field (8 minutes), immobility on an elevated ring of 5 cm diameter (4 minutes), rectal temperature (Yellow

female Sabra mice [2] = assay: Tetrad: rearing (vertical movements) in an open field; assay type: in vivo; settings: 20 mg/kg i.p., open field 8 min; normalized; * = P<0.05 vs vehicle
Procedure: as §2

female Sabra mice [3] = assay: Hot plate analgesia (centrally mediated pain); assay type: in vivo; settings: 20 mg/kg i.p., hot plate 55° C., max 45 sec; normalized; * = P<0.05 vs vehicle
Procedure: Pain perception on a hot plate, is considered to be mediated by a central mechanism whereas the second, late phase of the response to an implantar injection of formalin reflects inflammatory pain mechanisms [Tjolsen, A. and Hole (1997) id. ibid.].
Thus, central pain perception was assessed by the analgesic response on a hot plate (55° C., Columbus Instruments, OH, USA). Peripheral pain was measured by the response to implantar injection of formalin (4%) 45 minutes after injection of the drug.

female Sabra mice [4] = assay: Tetrad: catalepsy (immobility) on an elevated ring; assay type: in vivo; settings: 20 mg/kg i.p., elevated ring 4 min; normalized; * = P<0.05 vs vehicle
Procedure: as §2

[5] = test system: CB1−/− receptor knockout mice; assay: Intestinal motility in CB1−/− receptor knockout mice; assay type: in vivo; settings: 20 mg/kg i.p., defecation rate recorded for 3 hours
Procedure: Female CB1−/− knockout mice were injected i.p. with (+)-7-OH-CBD-DMH, (+)-CBD-DMH or Δ^9-THC (20 mg/kg). Intestinal motility (defecation rate) was recorded for a period of 3 hours.
as §1
(§3) Defecation was measured as the number of fecal pellets voided in the open field. In some experiments (as indicated below), fecal pellets and body temperature were assessed for a prolonged period (3 hr).

female Sabra mice [6] = assay: Hypothermia (rectal temperature); assay type: in vivo; settings: 20 mg/kg i.p., * = P<0.05 vs vehicle
Procedure: as §2, §3

female Sabra mice [7] = assay: Tetrad: ambulation (horizontal movements) in an open field; assay type: in vivo; settings: 20 mg/kg i.p., open field 8 min, 30 or 60 min after injection; normalized; * = P<0.05 vs vehicle
Procedure: as §2

female Sabra mice [8] = assay: Intestinal motility (defecation, number of fecal pellets); assay type: in vivo; settings: 20 mg/kg i.p.; for Inhibition of Intesitinal Motility (% MPE): defecation in open field 8 min, normalized, * = P<0.05 vs vehicle; for inhibition of defecation / intestinal motility, in words: 60 minutes after injection
Procedure: as §3

[9] = test system: arachidonic acid-induced ear inflammation in the mouse; assay: Arachidonic acid induced inflammation of the external ear; assay type: in vivo; settings: for inhibition of arachidonic acid-induced ear inflammation, in words: i.p., 10 to 40 mg/kg, ear thickness every 15 minutes for 90 minutes
Procedure: Ear inflammation was measured by assessing ear tissue swelling after topical application of arachidonic acid, as described previously [Hanus (1999) id. ibid.]. Briefly, at various times after i.p. drug injections, arachidonic acid was applied to the inner surface of one ear (4.5 mg dissolved in […] ethanol). The opposite ear served as control (5 ethanol). Ear thickness was determined (in 0.01-mm units) by using a dial thickness gauge (Mitutoyo, Japan) every 15 minutes for 90 minutes, starting immediately after arachidonic acid application.

CB2 receptor [10] = molecular target: T1, CB2 receptor (Homo sapiens, UniProt P34972); settings: cited from earlier work
T1 sequence (P34972 whole entry): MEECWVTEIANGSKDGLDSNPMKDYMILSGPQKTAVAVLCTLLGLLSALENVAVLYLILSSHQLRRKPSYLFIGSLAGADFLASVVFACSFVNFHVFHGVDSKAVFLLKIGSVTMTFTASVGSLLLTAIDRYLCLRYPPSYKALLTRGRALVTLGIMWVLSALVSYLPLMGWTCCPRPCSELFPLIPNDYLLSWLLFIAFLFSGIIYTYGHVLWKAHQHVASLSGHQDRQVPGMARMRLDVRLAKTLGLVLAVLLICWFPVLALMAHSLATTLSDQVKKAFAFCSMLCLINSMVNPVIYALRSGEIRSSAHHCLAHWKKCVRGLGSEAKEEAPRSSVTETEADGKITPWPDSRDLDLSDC

female Sabra mice [11] = assay: Intestinal motility after antagonist pre-treatment (SR141716A, SR144528, capsazepine); assay type: in vivo
Procedure: (SR1, 1 mg/kg). SR1 was injected (i.p.) 30 minutes before the agonist. 60 minutes after (+)CBD-DMH the number of fecal pellets was recorded.
(SR2, 1 mg/kg). SR2 was injected (i.p.) 30 minutes before the agonist. 60 minutes after (+)-CBD-DMH the number of fecal pellets was recorded.
as §2, §3

female Sabra mice [12] = assay: Tetrad overall (central cannabinoid activity); assay type: in vivo; settings: 20 mg/kg i.p., tested 60 minutes later
Procedure: Central activity of the compounds of the invention was assessed in the “tetrad”, which is a series of assays commonly used to measure central cannabimimmetic effects [Martin, B. R. et al. (1991) Pharmacol. Biochem. Behav. 40(3): 471-8; Fride, E. and C. Sanudo-Pena (2002) id. ibid.]. Three parameters for peripheral activity were used. Since gastrointestinal transit is regulated locally in the periphery rather than by centrally located CB1 receptors [Izzo (2000) id. ibid.; Landi (2002) id. ibid.], intestinal motility was one of the parameters used, and peripheral cannabinoid effects was measured as rates of defecation (see Example 29).
as §2

CB1 receptor [13] = molecular target: T2, CB1 receptor (Rattus norvegicus, UniProt P20272); settings: cited from earlier work
T2 sequence (P20272 whole entry): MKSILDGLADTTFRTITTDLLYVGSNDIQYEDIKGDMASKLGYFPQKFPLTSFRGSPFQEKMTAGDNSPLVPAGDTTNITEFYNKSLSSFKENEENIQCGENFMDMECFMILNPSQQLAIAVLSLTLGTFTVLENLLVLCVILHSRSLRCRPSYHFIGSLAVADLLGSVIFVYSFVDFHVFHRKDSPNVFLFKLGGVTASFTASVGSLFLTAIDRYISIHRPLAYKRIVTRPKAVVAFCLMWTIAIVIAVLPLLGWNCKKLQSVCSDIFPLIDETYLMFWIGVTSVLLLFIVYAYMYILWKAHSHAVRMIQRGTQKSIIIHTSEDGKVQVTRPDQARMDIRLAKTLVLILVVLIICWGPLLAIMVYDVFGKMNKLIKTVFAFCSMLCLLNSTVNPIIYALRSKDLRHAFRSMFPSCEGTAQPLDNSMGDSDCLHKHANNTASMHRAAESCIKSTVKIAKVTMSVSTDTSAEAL

female Sabra mice [14] = settings: Hanus (1999); antagonized by SR144528, not by SR141716A; cited from earlier work
CB1 receptor [15] = molecular target: T2, CB1 receptor; assay: CB1 receptor binding; settings: for Ki: first value of CB1/CB2 cell
CB2 receptor [16] = molecular target: T1, CB2 receptor; assay: CB2 receptor binding; settings: for Ki: second value of CB1/CB2 cell

Structure (SMILES)	Vertical Movements (% MPE) (female Sabra mice [2])	Analgesia (Hot Plate) (% MPE) (female Sabra mice [3])	Catalepsy (Freezing of Movement) (% MPE) (female Sabra mice [4])	Hypothermia (Δ-Body Temp.) (female Sabra mice [6])	Horizontal Movements (% MPE) (female Sabra mice [7])	Inhibition of Intesitinal Motility (% MPE) (female Sabra mice [8])	Ki (CB1 receptor [15]) [nM]	Ki (CB2 receptor [16]) [nM]	other results
CCCCCc1cc(O)c2c(c1)OC(C)(C)[C@@H]1CCC(C)=C[C@@H]21 [Δ^9−THC, Delta-9 tetrahydrocannabinol, reference compound]	12* % MPE	97* % MPE	44* % MPE	−2.1* ° C.	44* % MPE	100* % MPE			central effects in CB1−/− receptor knockout mice [1]: None of the drugs assessed ((+)-CBD-DMH, (+)-7-OH-CBD-DMH and Δ^9-THC had any effect; effect on intestinal motility in CB1−/− knockout mice [5]: None of the drugs assessed ((+)-CBD-DMH, (+)-7-OH-CBD-DMH and Δ^9-THC had any effect; also recorded: No significant effects
C=C(C)C1CCC(CO)=CC1c1c(O)cc(C(C)(C)CCCCCC)cc1O (single isomer, unassigned; (+)) [+70H−CBD−DMH, (+)-7-Hydroxy CBD-DMH]	0* % MPE	100* % MPE	95* % MPE	−5.2* ° C.	01* % MPE	100* % MPE			central effects in CB1−/− receptor knockout mice [1]: None of the drugs assessed ((+)-CBD-DMH, (+)-7-OH-CBD-DMH and Δ^9-THC had any effect; inhibition of arachidonic acid-induced ear inflammation, in words ([9]; listed as (+)7OH-CBD-DMH): effectively prevented ear inflammation; inhibition of arachidonic acid-induced ear inflammation, in words ([9]; listed as (+)-7-OHCBD-DMH): inhibited ear inflammation; Kd (CB2 receptor [10]; previously reported, Bisogno et al. 2001, read-out: affinity for the CB2 receptor (Kd)): 44 nM; Ki (CB2 receptor [10]; second value of CB1/CB2 cell, data from Bisogno et al., 2001, read-out: CB2 Receptor Binding (Ki)): 44 nM; effect on intestinal motility in CB1−/− knockout mice ([5]; listed as (+)-7-OH-CBD-DMH): None of the drugs assessed ((+)-CBD-DMH, (+)-7-OH-CBD-DMH and Δ^9-THC had any effect; also recorded: no effects; reversal of inhibition of defecation by CB1 antagonist SR141716A (female Sabra mice [11]; agonist 20 mg/kg, SR141716A 1 mg/kg i.p. 30 minutes before agonist): effectively antagonized; reversal of inhibition of defecation by CB2 antagonist SR144528 (female Sabra mice [11]; agonist 20 mg/kg, SR144528 1 or 3 mg/kg i.p. 30 minutes before agonist): not at all; effect of VR1 antagonist capsazepine on inhibition of defecation (female Sabra mice [11]; data not shown): did not affect; central effects (tetrad), in words (female Sabra mice [12]): very potent; central effects (tetrad), in words (female Sabra mice [12]; listed as (+)-7-OH-CBD-DMH): had central effects in all assays of the tetrad; central effects (tetrad), in words (female Sabra mice [12]; listed as (+)-7OH-CBD-DMH): significant and consistent central activity; Ki (CB1 receptor [13]; first value of CB1/CB2 cell, data from Bisogno et al., 2001, read-out: CB1 Receptor Binding (Ki)): 2.5 nM; Kd (CB1 receptor [13]; previously reported, Bisogno et al. 2001, read-out: affinity for the CB1 receptor (Kd)): 2.5 nM; inhibition of defecation / intestinal motility, in words (female Sabra mice [8]): completely blocked
CCCCCCC(C)(C)c1cc(OC)c([C@@H]2C=C(CO)[C@@H]3C[C@H]2C3(C)C)c(OC)c1 [HU-308]									inhibition of defecation (earlier report) (female Sabra mice [14]): inhibited defecation
C=C(C)C1CCC(CO)=CC1c1c(O)cc(CCCCC)cc1O (single isomer, unassigned; (+)) [+70H−CBD, (+)-7-Hydroxy CBD]	81 % MPE	77 % MPE	0 % MPE	0.3 °C	107 % MPE	89* % MPE	5.3	101	
C=C(C)C1CCC(C)=CC1c1c(O)cc(CCCCC)cc1O (single isomer, unassigned; (+)) [+CBD, (+)-CBD]	103 % MPE	13 % MPE	05 % MPE	0.5 °C	108 % MPE	13 % MPE			inhibition of arachidonic acid-induced ear inflammation, in words [9]: had no effect; CB1 receptor binding, in words (CB1 receptor [15]): weakly binds; CB2 receptor binding, in words (CB2 receptor [16]): weakly binds; central effects (tetrad), in words (female Sabra mice [12]): had no central neither peripheral (intestinal motility) effects; also recorded: Lack of effects; inhibition of defecation / intestinal motility, in words (female Sabra mice [8]): had no central neither peripheral (intestinal motility) effects; also recorded: Lack of effects
COc1ccc2c(c1)c(CC(=O)O)c(C)n2C(=O)c1ccc(Cl)cc1 [Indomethacin, reference compound]									potency compared to indomethacin in ear inflammation, in words ([9]; (+)-CBD-DMH 40 or 10 mg/kg vs indomethacin 20 mg/kg): Equal potencies
C=C(C)C1CCC(C(=O)O)=CC1c1c(O)cc(CCCCC)cc1O (single isomer, unassigned) [+COOH−CBD, 7-Nor-carboxy CBD]	71 % MPE		06 % MPE	−0.6 °C	80 % MPE	100* % MPE	13.2	322	
C=C(C)C1CCC(C(=O)O)=CC1c1c(O)cc(C(C)(C)CCCCCC)cc1O (single isomer, unassigned; (+)) [+COOH−CBD−DMH, (+)-7-Nor-carboxy CBD DMH]	100 % MPE	09 % MPE	0 % MPE	0.2 °C	102 % MPE	100* % MPE	5.8	156	

— patent US7884133B2, “Pharmaceutical compositions containing (+) cannabidioil and derivatives thereof and some such novel derivatives” (priority 2003, dated 2011)
